Experiments:
isolated rat adipocytes [1] = test: Antagonism of fragment 116-167 to the leptin effect: insulin-stimulated glucose transport; type: cell-based; conditions: Leptin: 10 nM 17.5 h, no fragment; Insulin: 5 nM
Method: Adipocytes were prepared from the epididymal fat tissue of male Wistar rats (140-160 g, Hoechst AG breeding station, Kastengrund) by means of digesting with collagenase (Rodbell, 1964, J. Biol. Chem. 239, 375-380), washed twice with KRH (25 mM Hepes free acid, 25 mM Hepes sodium salt, 80 mM NaCl, 1 mM MgSO4, 2 mM CaCl2, 6 mM KCl, 1 mM sodium pyruvate, 0.5% BSA) and once with DMEM (Dulbecco's minimal essential medium), supplemented with 5.5 mM glucose, 20 mM Hepes (pH 7.4), 2% fetal calf serum, 1% BSA, 50 U of penicillin/ml, […], by means of flotation (800×g, 1 min, in small plastic tubes), and finally diluted to a volume of 20 ml of DMEM/g wet weight of the fat tissue (cell titer: approximately 2.5×10^5 cells/ml). […]
Glucose transport was measured as the specific uptake of the non-metabolizable glucose analog 2-deoxyglucose (Muller and Wied, 1993, Diabetes 42, 1852-1867). […] After 10 ml of scintillation fluid (water-based) had been added, the radioactivity associated with the cells was measured. […]
Isolated rat adipocytes were incubated for 17.5 h in primary culture in the presence or absence of leptin (10 nM) and increasing concentrations of leptin fragment 116-167. […] The stimulation factor for insulin was calculated as the ratio between the insulin-stimulated activity and the basal activity. […]

isolated rat adipocytes [2] = test: Glucose transport (2-deoxyglucose uptake) in isolated rat adipocytes after primary culture with leptin, basal and insulin-stimulated; type: cell-based; conditions: for Glucose Transport, stimulation factor for insulin (stimulated/basal): Insulin concentration: 5 nM
Method: Adipocytes were prepared from the epididymal fat tissue of male Wistar rats (140-160 g, Hoechst AG breeding station, Kastengrund) by means of digesting with collagenase (Rodbell, 1964, J. Biol. Chem. 239, 375-380), washed twice with KRH (25 mM Hepes free acid, 25 mM Hepes sodium salt, 80 mM NaCl, 1 mM MgSO4, 2 mM CaCl2, 6 mM KCl, 1 mM sodium pyruvate, 0.5% BSA) and once with DMEM (Dulbecco's minimal essential medium), supplemented with 5.5 mM glucose, 20 mM Hepes (pH 7.4), 2% fetal calf serum, 1% BSA, 50 U of penicillin/ml, […], by means of flotation (800×g, 1 min, in small plastic tubes), and finally diluted to a volume of 20 ml of DMEM/g wet weight of the fat tissue (cell titer: approximately 2.5×10^5 cells/ml).
The adipocytes were incubated, at 37° C. for 15-18 h under an atmosphere of 5% CO2 and with gentle shaking, in supplemented (see above) DMEM in the presence of 100 nM phenylisopropyladenosine (4 ml of DMEM to 1 ml of cells, cell titer approximately 5×10^4 cell/ml, in 50 ml sterile polypropylene: tubes) and in the presence or absence of leptin. The adipocytes were subsequently washed three times with cold KRH and adjusted to a cell titer of approximately 3×10^5 cells/ml by adding 0.7 ml of glucose-free KRH to the cell layer which remained after the complete removal of the last washing solution. In order to determine the capacity of the adipocytes to be stimulated by insulin, and their sensitivity to insulin, following the primary culture, the washed adipocytes were incubated at 37° C. for 20 min in the absence or presence of human insulin (0.02-50 nM final concentration), and glucose transport or lipogenesis was then measured.
Glucose transport was measured as the specific uptake of the non-metabolizable glucose analog 2-deoxyglucose (Muller and Wied, 1993, Diabetes 42, 1852-1867). 50 μl of the adipocyte suspension in KRH, which suspension had or had not been preincubated with insulin (see above), were incubated, at 25° C. for 5 min, with 50 μl of KRH which was supplemented with 2-deoxy-D-[2,6-^3H]glucose (0.5 μCi, 0.2 mM). The incubation mixtures were transferred to thin soft-plastic centrifuge tubes, each of which already contained 200 μl of dinonyl phthalate oil, and immediately centrifuged (2,000×g, 30 sec). Using special shears, the tubes were severed within the oil layer (in the vicinity of the upper edge) and the upper halves of the tubes, together with the cell layers which had in each case been floated onto the oil layer, were transferred to scintillation vials. After 10 ml of scintillation fluid (water-based) had been added, the radioactivity associated with the cells was measured. In order to correct for 2-deoxyglucose which had become enclosed in the cell interstices, or had diffused into the cells, in a non-specific manner, the radioactivity of cells which had been preincubated with cytochalasin B (20 μM) was subtracted from the total cell-associated radioactivity of each individual incubation mixture (Gliemann et al., 1972, Biochim. Biophys. Acta 286, 1-9).
Isolated rat adipocytes were incubated for 15 h in primary culture in the presence or absence of increasing concentrations of leptin. […] The stimulation factor for insulin was calculated as the ratio between insulin-stimulated and basal activities. Each value represents the mean from two independent adipocyte cultures with activity being determined two or three times in each case.
The cells were then washed and tested for the stimulation of glucose transport by differing concentrations of insulin. Glucose transport activity is given as a “dpm value” of the 2deoxy-[^3H]glucose which is specifically associated with the cells. Each value represents the mean from two independent adipocyte cultures with the activity being determined four times in each case.

Leptin
Glucose Transport, stimulation factor for insulin (stimulated/basal) (isolated rat adipocytes [1]): 3.55
leptin concentration at which effects can already be detected in vitro (isolated rat adipocytes [2]; insulin dose/effect curves at different leptin concentrations): 0.5 to 1 nM
glucose transport, uptake of 3H-labeled 2-deoxyglucose (isolated rat adipocytes [2]; leptin 0.05 nM 16.5 h, insulin 0.02 nM): 735 dpm
glucose transport, uptake of 3H-labeled 2-deoxyglucose (isolated rat adipocytes [2]; leptin 0.05 nM 16.5 h, insulin 0.05 nM): 1025 dpm
glucose transport, uptake of 3H-labeled 2-deoxyglucose (isolated rat adipocytes [2]; leptin 0.05 nM 16.5 h, insulin 0.1 nM): 1674 dpm
glucose transport, uptake of 3H-labeled 2-deoxyglucose (isolated rat adipocytes [2]; leptin 0.05 nM 16.5 h, insulin 0.2 nM): 3320 dpm
glucose transport, uptake of 3H-labeled 2-deoxyglucose (isolated rat adipocytes [2]; leptin 0.05 nM 16.5 h, insulin 0.5 nM): 5138 dpm
glucose transport, uptake of 3H-labeled 2-deoxyglucose (isolated rat adipocytes [2]; leptin 0.05 nM 16.5 h, insulin 1 nM): 6834 dpm
glucose transport, uptake of 3H-labeled 2-deoxyglucose (isolated rat adipocytes [2]; leptin 0.05 nM 16.5 h, insulin 2 nM): 7942 dpm
glucose transport, uptake of 3H-labeled 2-deoxyglucose (isolated rat adipocytes [2]; leptin 0.05 nM 16.5 h, insulin 5 nM): 8794 dpm
glucose transport, uptake of 3H-labeled 2-deoxyglucose (isolated rat adipocytes [2]; leptin 0.05 nM 16.5 h, insulin 10 nM): 9134 dpm
glucose transport, uptake of 3H-labeled 2-deoxyglucose (isolated rat adipocytes [2]; leptin 0.05 nM 16.5 h, insulin 50 nM): 9189 dpm
glucose transport, uptake of 3H-labeled 2-deoxyglucose (isolated rat adipocytes [2]; leptin 0.05 nM 16.5 h, no insulin (basal)): 654 dpm
Glucose Transport, stimulation factor for insulin (stimulated/basal) (isolated rat adipocytes [2]; leptin 0.3 nM 15 h): 13.4
Glucose Transport, stimulation factor for insulin (stimulated/basal) (isolated rat adipocytes [2]; leptin 1 nM 15 h): 11.75
glucose transport, uptake of 3H-labeled 2-deoxyglucose (isolated rat adipocytes [2]; leptin 1 nM 16.5 h, insulin 0.02 nM): 678 dpm
glucose transport, uptake of 3H-labeled 2-deoxyglucose (isolated rat adipocytes [2]; leptin 1 nM 16.5 h, insulin 0.05 nM): 824 dpm
glucose transport, uptake of 3H-labeled 2-deoxyglucose (isolated rat adipocytes [2]; leptin 1 nM 16.5 h, insulin 0.1 nM): 1189 dpm
glucose transport, uptake of 3H-labeled 2-deoxyglucose (isolated rat adipocytes [2]; leptin 1 nM 16.5 h, insulin 0.2 nM): 1587 dpm
glucose transport, uptake of 3H-labeled 2-deoxyglucose (isolated rat adipocytes [2]; leptin 1 nM 16.5 h, insulin 0.5 nM): 2180 dpm
glucose transport, uptake of 3H-labeled 2-deoxyglucose (isolated rat adipocytes [2]; leptin 1 nM 16.5 h, insulin 1 nM): 3904 dpm
glucose transport, uptake of 3H-labeled 2-deoxyglucose (isolated rat adipocytes [2]; leptin 1 nM 16.5 h, insulin 2 nM): 5510 dpm
glucose transport, uptake of 3H-labeled 2-deoxyglucose (isolated rat adipocytes [2]; leptin 1 nM 16.5 h, insulin 5 nM): 6985 dpm
glucose transport, uptake of 3H-labeled 2-deoxyglucose (isolated rat adipocytes [2]; leptin 1 nM 16.5 h, insulin 10 nM): 8241 dpm
glucose transport, uptake of 3H-labeled 2-deoxyglucose (isolated rat adipocytes [2]; leptin 1 nM 16.5 h, insulin 50 nM): 8932 dpm
glucose transport, uptake of 3H-labeled 2-deoxyglucose (isolated rat adipocytes [2]; leptin 1 nM 16.5 h, no insulin (basal)): 634 dpm
glucose transport, uptake of 3H-labeled 2-deoxyglucose (isolated rat adipocytes [2]; leptin 2 nM 16.5 h, insulin 0.02 nM): 704 dpm
glucose transport, uptake of 3H-labeled 2-deoxyglucose (isolated rat adipocytes [2]; leptin 2 nM 16.5 h, insulin 0.05 nM): 755 dpm
glucose transport, uptake of 3H-labeled 2-deoxyglucose (isolated rat adipocytes [2]; leptin 2 nM 16.5 h, insulin 0.1 nM): 860 dpm
glucose transport, uptake of 3H-labeled 2-deoxyglucose (isolated rat adipocytes [2]; leptin 2 nM 16.5 h, insulin 0.2 nM): 1006 dpm
glucose transport, uptake of 3H-labeled 2-deoxyglucose (isolated rat adipocytes [2]; leptin 2 nM 16.5 h, insulin 0.5 nM): 1377 dpm
glucose transport, uptake of 3H-labeled 2-deoxyglucose (isolated rat adipocytes [2]; leptin 2 nM 16.5 h, insulin 1 nM): 1916 dpm
glucose transport, uptake of 3H-labeled 2-deoxyglucose (isolated rat adipocytes [2]; leptin 2 nM 16.5 h, insulin 2 nM): 2680 dpm
glucose transport, uptake of 3H-labeled 2-deoxyglucose (isolated rat adipocytes [2]; leptin 2 nM 16.5 h, insulin 5 nM): 4323 dpm
glucose transport, uptake of 3H-labeled 2-deoxyglucose (isolated rat adipocytes [2]; leptin 2 nM 16.5 h, insulin 10 nM): 6107 dpm
glucose transport, uptake of 3H-labeled 2-deoxyglucose (isolated rat adipocytes [2]; leptin 2 nM 16.5 h, insulin 50 nM): 7032 dpm
glucose transport, uptake of 3H-labeled 2-deoxyglucose (isolated rat adipocytes [2]; leptin 2 nM 16.5 h, no insulin (basal)): 688 dpm
Glucose Transport, stimulation factor for insulin (stimulated/basal) (isolated rat adipocytes [2]; leptin 3 nM 15 h): 7.4
glucose transport, uptake of 3H-labeled 2-deoxyglucose (isolated rat adipocytes [2]; leptin 5 nM 16.5 h, insulin 0.02 nM): 734 dpm
glucose transport, uptake of 3H-labeled 2-deoxyglucose (isolated rat adipocytes [2]; leptin 5 nM 16.5 h, insulin 0.05 nM): 798 dpm
glucose transport, uptake of 3H-labeled 2-deoxyglucose (isolated rat adipocytes [2]; leptin 5 nM 16.5 h, insulin 0.1 nM): 883 dpm
glucose transport, uptake of 3H-labeled 2-deoxyglucose (isolated rat adipocytes [2]; leptin 5 nM 16.5 h, insulin 0.2 nM): 923 dpm
glucose transport, uptake of 3H-labeled 2-deoxyglucose (isolated rat adipocytes [2]; leptin 5 nM 16.5 h, insulin 0.5 nM): 1167 dpm
